What was measured:
[1] = classification of the substance (M+/M−); cited from earlier work
[2] = system: mRNA expressed from the genes (A) to (D) in rat liver; assay: Behavior of genes (mRNA expression level, oligo-DNA microarray) in rat liver after 28-day oral administration; type: in vivo; conditions: for Behavior of gene caused by administration of chemical substance, Gene No. 4846 / Behavior of gene caused by administration of chemical substance, Gene No. 2026 / Behavior of gene caused by administration of chemical substance, Gene No. 4218 / Behavior of gene caused by administration of chemical substance, Gene No. 6182 / Behavior of gene caused by administration of chemical substance, Gene No. 5600: gene group (A); for Behavior of gene caused by administration of chemical substance, Gene No. 4846: Unigene No. Rn.144554; for Behavior of gene caused by administration of chemical substance, Gene No. 2026 / Behavior of gene caused by administration of chemical substance, Gene No. 4218: Unigene No. Rn.167075; for Behavior of gene caused by administration of chemical substance, Gene No. 6182: Unigene No. Rn.5834; for Behavior of gene caused by administration of chemical substance, Gene No. 5600: Unigene No. Rn.9836; for Behavior of gene caused by administration of chemical substance, Gene No. 1494 / Behavior of gene caused by administration of chemical substance, Gene No. 2045 / Behavior of gene caused by administration of chemical substance, Gene No. 2203: gene group (B); for Behavior of gene caused by administration of chemical substance, Gene No. 1494: Unigene No. Rn.1430; for Behavior of gene caused by administration of chemical substance, Gene No. 2045: Unigene No. Rn.19329; for Behavior of gene caused by administration of chemical substance, Gene No. 2203: Unigene No. Rn.21240; for Behavior of gene caused by administration of chemical substance, Gene No. 533 / Behavior of gene caused by administration of chemical substance, Gene No. 725 / Behavior of gene caused by administration of chemical substance, Gene No. 1163 / Behavior of gene caused by administration of chemical substance, Gene No. 4973 / Behavior of gene caused by administration of chemical substance, Gene No. 4095 / Behavior of gene caused by administration of chemical substance, Gene No. 1334 / Behavior of gene caused by administration of chemical substance, Gene No. 6620 / Behavior of gene caused by administration of chemical substance, Gene No. 6303 / Behavior of gene caused by administration of chemical substance, Gene No. 5878 / Behavior of gene caused by administration of chemical substance, Gene No. 1131 / Behavior of gene caused by administration of chemical substance, Gene No. 1562 / Behavior of gene caused by administration of chemical substance, Gene No. 1741 / Behavior of gene caused by administration of chemical substance, Gene No. 893 / Behavior of gene caused by administration of chemical substance, Gene No. 6026 / Behavior of gene caused by administration of chemical substance, Gene No. 154 / Behavior of gene caused by administration of chemical substance, Gene No. 1993 / Behavior of gene caused by administration of chemical substance, Gene No. 813 / Behavior of gene caused by administration of chemical substance, Gene No. 2494 / Behavior of gene caused by administration of chemical substance, Gene No. 2546 / Behavior of gene caused by administration of chemical substance, Gene No. 3776 / Behavior of gene caused by administration of chemical substance, Gene No. 3929 / Behavior of gene caused by administration of chemical substance, Gene No. 1119 / Behavior of gene caused by administration of chemical substance, Gene No. 6742 / Behavior of gene caused by administration of chemical substance, Gene No. 5634: gene group (C); for Behavior of gene caused by administration of chemical substance, Gene No. 533: Unigene No. Rn.106184; for Behavior of gene caused by administration of chemical substance, Gene No. 725: Unigene No. Rn.108075; for Behavior of gene caused by administration of chemical substance, Gene No. 1163: Unigene No. Rn.11766; for Behavior of gene caused by administration of chemical substance, Gene No. 4973: Unigene No. Rn.118529; for Behavior of gene caused by administration of chemical substance, Gene No. 4095: Unigene No. Rn.119024; for Behavior of gene caused by administration of chemical substance, Gene No. 1334 / Behavior of gene caused by administration of chemical substance, Gene No. 6620: Unigene No. Rn.120914; for Behavior of gene caused by administration of chemical substance, Gene No. 6303: Unigene No. Rn.123063; for Behavior of gene caused by administration of chemical substance, Gene No. 5878: Unigene No. Rn.143213; for Behavior of gene caused by administration of chemical substance, Gene No. 1131: Unigene No. Rn.144946; for Behavior of gene caused by administration of chemical substance, Gene No. 1562: Unigene No. Rn.14744; for Behavior of gene caused by administration of chemical substance, Gene No. 1741: Unigene No. Rn.1647; for Behavior of gene caused by administration of chemical substance, Gene No. 893: Unigene No. Rn.164817; for Behavior of gene caused by administration of chemical substance, Gene No. 6026: Unigene No. Rn.167685; for Behavior of gene caused by administration of chemical substance, Gene No. 154: Unigene No. Rn.185941; for Behavior of gene caused by administration of chemical substance, Gene No. 1993: Unigene No. Rn.18728; for Behavior of gene caused by administration of chemical substance, Gene No. 813: Unigene No. Rn.201760; for Behavior of gene caused by administration of chemical substance, Gene No. 2494: Unigene No. Rn.23969; for Behavior of gene caused by administration of chemical substance, Gene No. 2546: Unigene No. Rn.24561; for Behavior of gene caused by administration of chemical substance, Gene No. 3776: Unigene No. Rn.43232; for Behavior of gene caused by administration of chemical substance, Gene No. 3929: Unigene No. Rn.4620; for Behavior of gene caused by administration of chemical substance, Gene No. 1119: Unigene No. Rn.9757; for Behavior of gene caused by administration of chemical substance, Gene No. 6742: Unigene No. Rn.9779; for Behavior of gene caused by administration of chemical substance, Gene No. 5634: Unigene No. Rn.9862; for Behavior of gene caused by administration of chemical substance, Gene No. 5726: gene group (D), Unigene No. Rn.9939
Method in brief: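 Male F344 SPF rats, 5 weeks old, four per group, dosed by oral gavage once daily for 28 days with test chemical or matched-volume solvent. Liver total RNA profiled on oligo-DNA microarray. Change ≥1.5-fold or ≤1/1.5 versus vehicle counted as significant if its direction matched that seen with other carcinogens.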

rodent = conditions: classification of the substance (C+/C−); cited from earlier work
liver = conditions: classification of the substance (Cr+/Cr−); cited from earlier work

Clc1ccc(Cl)cc1 [TS026, 1,4-Dichlorobenzene]
Mutagenicity by Ames test [1]: M−
Behavior of gene caused by administration of chemical substance, Gene No. 4846 ([2]; mRNA vs vehicle control group): −
Behavior of gene caused by administration of chemical substance, Gene No. 2026 ([2]; mRNA vs vehicle control group): −
Behavior of gene caused by administration of chemical substance, Gene No. 4218 ([2]; mRNA vs vehicle control group): −
Behavior of gene caused by administration of chemical substance, Gene No. 6182 ([2]; mRNA vs vehicle control group): −
Behavior of gene caused by administration of chemical substance, Gene No. 5600 ([2]; mRNA vs vehicle control group): −
Behavior of gene caused by administration of chemical substance, Gene No. 1494 ([2]; mRNA vs vehicle control group): +
Behavior of gene caused by administration of chemical substance, Gene No. 2045 ([2]; mRNA vs vehicle control group): −
Behavior of gene caused by administration of chemical substance, Gene No. 2203 ([2]; mRNA vs vehicle control group): −
Behavior of gene caused by administration of chemical substance, Gene No. 533 ([2]; mRNA vs vehicle control group): +
Behavior of gene caused by administration of chemical substance, Gene No. 725 ([2]; mRNA vs vehicle control group): −
Behavior of gene caused by administration of chemical substance, Gene No. 1163 ([2]; mRNA vs vehicle control group): −
Behavior of gene caused by administration of chemical substance, Gene No. 4973 ([2]; mRNA vs vehicle control group): −
Behavior of gene caused by administration of chemical substance, Gene No. 4095 ([2]; mRNA vs vehicle control group): +
Behavior of gene caused by administration of chemical substance, Gene No. 1334 ([2]; mRNA vs vehicle control group): −
Behavior of gene caused by administration of chemical substance, Gene No. 6620 ([2]; mRNA vs vehicle control group): −
Behavior of gene caused by administration of chemical substance, Gene No. 6303 ([2]; mRNA vs vehicle control group): +
Behavior of gene caused by administration of chemical substance, Gene No. 5878 ([2]; mRNA vs vehicle control group): −
Behavior of gene caused by administration of chemical substance, Gene No. 1131 ([2]; mRNA vs vehicle control group): −
Behavior of gene caused by administration of chemical substance, Gene No. 1562 ([2]; mRNA vs vehicle control group): −
Behavior of gene caused by administration of chemical substance, Gene No. 1741 ([2]; mRNA vs vehicle control group): −
Behavior of gene caused by administration of chemical substance, Gene No. 893 ([2]; mRNA vs vehicle control group): −
Behavior of gene caused by administration of chemical substance, Gene No. 6026 ([2]; mRNA vs vehicle control group): +
Behavior of gene caused by administration of chemical substance, Gene No. 154 ([2]; mRNA vs vehicle control group): −
Behavior of gene caused by administration of chemical substance, Gene No. 1993 ([2]; mRNA vs vehicle control group): −
Behavior of gene caused by administration of chemical substance, Gene No. 813 ([2]; mRNA vs vehicle control group): −
Behavior of gene caused by administration of chemical substance, Gene No. 2494 ([2]; mRNA vs vehicle control group): −
Behavior of gene caused by administration of chemical substance, Gene No. 2546 ([2]; mRNA vs vehicle control group): −
Behavior of gene caused by administration of chemical substance, Gene No. 3776 ([2]; mRNA vs vehicle control group): −
Behavior of gene caused by administration of chemical substance, Gene No. 3929 ([2]; mRNA vs vehicle control group): −
Behavior of gene caused by administration of chemical substance, Gene No. 1119 ([2]; mRNA vs vehicle control group): −
Behavior of gene caused by administration of chemical substance, Gene No. 6742 ([2]; mRNA vs vehicle control group): −
Behavior of gene caused by administration of chemical substance, Gene No. 5634 ([2]; mRNA vs vehicle control group): −
Behavior of gene caused by administration of chemical substance, Gene No. 5726 ([2]; mRNA vs vehicle control group): +
Carcinogenicity (rodent): C+
Liver carcinogenicity (liver): Cr−

Cl.ClCc1ccccn1 [TS033, 2-Chloromethylpyridine HCl]
Mutagenicity by Ames test [1]: M+
Behavior of gene caused by administration of chemical substance, Gene No. 4846 [2]: −
Behavior of gene caused by administration of chemical substance, Gene No. 2026 [2]: −
Behavior of gene caused by administration of chemical substance, Gene No. 4218 [2]: −
Behavior of gene caused by administration of chemical substance, Gene No. 6182 [2]: −
Behavior of gene caused by administration of chemical substance, Gene No. 5600 [2]: −
Behavior of gene caused by administration of chemical substance, Gene No. 1494 [2]: −
Behavior of gene caused by administration of chemical substance, Gene No. 2045 [2]: −
Behavior of gene caused by administration of chemical substance, Gene No. 2203 [2]: −
Behavior of gene caused by administration of chemical substance, Gene No. 533 [2]: −
Behavior of gene caused by administration of chemical substance, Gene No. 725 [2]: −
Behavior of gene caused by administration of chemical substance, Gene No. 1163 [2]: −
Behavior of gene caused by administration of chemical substance, Gene No. 4973 [2]: −
Behavior of gene caused by administration of chemical substance, Gene No. 4095 [2]: −
Behavior of gene caused by administration of chemical substance, Gene No. 1334 [2]: −
Behavior of gene caused by administration of chemical substance, Gene No. 6620 [2]: −
Behavior of gene caused by administration of chemical substance, Gene No. 6303 [2]: −
Behavior of gene caused by administration of chemical substance, Gene No. 5878 [2]: −
Behavior of gene caused by administration of chemical substance, Gene No. 1131 [2]: −
Behavior of gene caused by administration of chemical substance, Gene No. 1562 [2]: −
Behavior of gene caused by administration of chemical substance, Gene No. 1741 [2]: −
Behavior of gene caused by administration of chemical substance, Gene No. 893 [2]: −
Behavior of gene caused by administration of chemical substance, Gene No. 6026 [2]: −
Behavior of gene caused by administration of chemical substance, Gene No. 154 [2]: −
Behavior of gene caused by administration of chemical substance, Gene No. 1993 [2]: −
Behavior of gene caused by administration of chemical substance, Gene No. 813 [2]: −
Behavior of gene caused by administration of chemical substance, Gene No. 2494 [2]: −
Behavior of gene caused by administration of chemical substance, Gene No. 2546 [2]: −
Behavior of gene caused by administration of chemical substance, Gene No. 3776 [2]: −
Behavior of gene caused by administration of chemical substance, Gene No. 3929 [2]: −
Behavior of gene caused by administration of chemical substance, Gene No. 1119 [2]: −
Behavior of gene caused by administration of chemical substance, Gene No. 6742 [2]: −
Behavior of gene caused by administration of chemical substance, Gene No. 5634 [2]: −
Behavior of gene caused by administration of chemical substance, Gene No. 5726 [2]: −
Carcinogenicity (rodent): C−
Liver carcinogenicity (liver): Cr−

Source: US20110039721A1, “METHOD FOR PREDICTION ABOUT CARCINOGENICITY OF SUBSTANCE IN RODENT” (Chemicals Evaluation and Research Institute, priority 2007, published 2011)
